Here are results for 24 compounds from PubChem BioAssay AID330 (DTP/NCI, 2004).

Values joined by “and” are separate entries in the source; they are usually repeats but may differ in a detail not shown here. Identical values can stand only once. Toxic doses and inconclusive results are not listed. Peptide text beside a SMILES is read from it.

This experiment deals with P388 leukemia ip, CD2F1 mice, survival T/C. As to the kind of experiment: NCI In Vivo Anticancer Drug Screen. Data for tumor model P388 Leukemia (intraperitoneal) in CD2F1 (CDF1) mice. Conditions: endpoint: median survival time, higher = longer survival. In a few lines:
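Mice carrying the transplanted tumor received test compound or vehicle. Survival was recorded in each group, and the value is the treated-group measurement divided by that of the vehicle-treated control group.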

Where [1] appears, read: dose: 6.25 mg/kg/injection, schedule: Q04DX003 (ip), vehicle: saline.
Setting [2] is: dose: 12.5 mg/kg/injection, schedule: Q04DX003 (ip), vehicle: saline.
Where [3] appears, read: dose: 100.0 mg/kg/injection, schedule: Q04DX003 (ip), vehicle: Klucel (hydroxypropylcellulose) (HPC).
Setting [4] is: dose: 200.0 mg/kg/injection, schedule: Q04DX003 (ip), vehicle: Klucel (hydroxypropylcellulose) (HPC).
The mark [5] stands for this setting: dose: 50.0 mg/kg/injection, schedule: Q01DX005 (ip), vehicle: Klucel (hydroxypropylcellulose) (HPC).
Setting [6] is: dose: 100.0 mg/kg/injection, schedule: Q01DX005 (ip), vehicle: Klucel (hydroxypropylcellulose) (HPC).
[7] abbreviates: dose: 100.0 mg/kg/injection, schedule: Q04DX002 (ip), vehicle: saline with Tween-80.
Where [8] appears, read: dose: 200.0 mg/kg/injection, schedule: Q04DX002 (ip), vehicle: saline with Tween-80.
The mark [9] stands for this setting: dose: 100.0 mg/kg/injection, schedule: Q01DX009 (ip), vehicle: Klucel (hydroxypropylcellulose) (HPC).
[10] abbreviates: dose: 100.0 mg/kg/injection, schedule: Q01DX009 (ip), vehicle: saline.
Where [11] appears, read: dose: 200.0 mg/kg/injection, schedule: Q01DX009 (ip), vehicle: Klucel (hydroxypropylcellulose) (HPC).
Where [12] appears, read: dose: 50.0 mg/kg/injection, schedule: Q01DX009 (ip), vehicle: Klucel (hydroxypropylcellulose) (HPC).
The mark [13] stands for this setting: dose: 200.0 mg/kg/injection, schedule: Q01DX005 (ip), vehicle: Klucel (hydroxypropylcellulose) (HPC).

As to `C[CH2][Sn]1([CH2]C)[O]C(=O)CC(=O)[O]1`, the T/C runs as follows: (dose: 1.56 mg/kg/injection, schedule: Q04DX003 (ip), vehicle: saline) 105 % of control and 120 % of control; (dose: 3.12 mg/kg/injection, schedule: Q04DX003 (ip), vehicle: saline) 115 % of control and 118 % of control; under setting [1], 114 % of control and 124 % of control; under setting [2], 109 % of control.
In the case of `O=C1OC(=O)C2C1C1(c3ccccc3)OC2(c2ccccc2)c2ccccc21` (stereo not given), the T/C by setting is: (dose: 100.0 mg/kg/injection, schedule: Q04DX003 (ip), vehicle: saline with Tween-80) 110 % of control; (dose: 200.0 mg/kg/injection, schedule: Q04DX003 (ip), vehicle: saline with Tween-80) 109 % of control; (dose: 400.0 mg/kg/injection, schedule: Q04DX003 (ip), vehicle: saline with Tween-80) 118 % of control.
For the compound `N#CN=[N+]([O-])c1cccc([N+](=O)[O-])c1`, the T/C is, setting by setting: (dose: 6.25 mg/kg/injection, schedule: Q04DX003 (ip), vehicle: Klucel (hydroxypropylcellulose) (HPC)) 106 % of control; (dose: 12.5 mg/kg/injection, schedule: Q04DX003 (ip), vehicle: Klucel (hydroxypropylcellulose) (HPC)) 89 % of control.
For the compound `O=C1OCCOCCOCCOCCOCCOC(=O)c2cccc1n2`, the T/C by setting is: under setting [3], 96 % of control; under setting [4], 103 % of control; (dose: 400.0 mg/kg/injection, schedule: Q04DX003 (ip), vehicle: Klucel (hydroxypropylcellulose) (HPC)) 101 % of control.
Turning to `COc1ccc2c(c1O)C13CCN(C)[C@@H](C2)C12CC2/C(=N/O)[C@H]3OC(C)=O` (stereo not given in full), the T/C is 92 % of control under setting [5] and 97 % of control under setting [6].
Consider `CCCCCc1nnc2n1N=C(c1ccc(Cl)cc1)CS2`, for which the T/C by setting is: (dose: 60.0 mg/kg/injection, schedule: Q01DX005 (ip), vehicle: saline with Tween-80) 100 % of control; (dose: 120.0 mg/kg/injection, schedule: Q01DX005 (ip), vehicle: saline with Tween-80) 92 % of control; (dose: 240.0 mg/kg/injection, schedule: Q01DX005 (ip), vehicle: saline with Tween-80) 91 % of control.
Turning to `Oc1c(Cl)cc(Cl)cc1CN1CCCCC1`, the T/C was 91 % of control (dose: 50.0 mg/kg/injection, schedule: Q01DX009 (ip), vehicle: suspension in saline); 98 % of control (dose: 100.0 mg/kg/injection, schedule: Q01DX009 (ip), vehicle: suspension in saline); 91 % of control (dose: 200.0 mg/kg/injection, schedule: Q01DX009 (ip), vehicle: suspension in saline).
Regarding `Cc1c2cnccc2c(C)c2c1c1ccccc1n2CCCCCCCCCCCCn1c2ccccc2c2c(C)c3cnccc3c(C)c21`, the T/C (dose: 25.0 mg/kg/injection, schedule: Q04DX002 (ip), vehicle: saline with Tween-80) is 98 % of control; the T/C (dose: 50.0 mg/kg/injection, schedule: Q04DX002 (ip), vehicle: saline with Tween-80) is 100 % of control; the T/C under setting [7] was 100 % of control; the T/C under setting [8] was 98 % of control.
Consider `CCCCCCCCCCCCCCCC[N+](C)(C)Cc1ccccc1`, for which the T/C by setting is: under setting [1], 98 % of control; under setting [2], 98 % of control; (dose: 25.0 mg/kg/injection, schedule: Q04DX003 (ip), vehicle: saline) 100 % of control.
In the case of `CC1(C)CC(C)(OC(=O)c2ccccc2Cl)[N+]([O-])=N1` (stereo not given) (tested in a mixture with another compound), the T/C reads like this: (dose: 12.5 mg/kg/injection, schedule: Q01DX009 (ip), vehicle: other) 99 % of control; (dose: 25.0 mg/kg/injection, schedule: Q01DX009 (ip), vehicle: other) 98 % of control; (dose: 50.0 mg/kg/injection, schedule: Q01DX009 (ip), vehicle: other) 93 % of control; (dose: 100.0 mg/kg/injection, schedule: Q01DX009 (ip), vehicle: other) 94 % of control; (dose: 200.0 mg/kg/injection, schedule: Q01DX009 (ip), vehicle: other) 100 % of control.
Take `Nc1ccn(C2OC(CCl)C(O)C2O)c(=O)n1` (stereo not given): the T/C is, setting by setting: (dose: 6.25 mg/kg/injection, schedule: Q01DX009 (ip), vehicle: Klucel (hydroxypropylcellulose) (HPC)) 101 % of control; (dose: 12.5 mg/kg/injection, schedule: Q01DX009 (ip), vehicle: Klucel (hydroxypropylcellulose) (HPC)) 106 % of control; under setting [9], 172 % of control; under setting [10], 154 % of control; under setting [11], 186 % of control; (dose: 200.0 mg/kg/injection, schedule: Q01DX009 (ip), vehicle: saline) 164 % of control. Further, for the setting “dose: 400.0 mg/kg/injection, schedule: Q01DX009 (ip), vehicle: saline”, the T/C was 177 % of control.
In the case of `COc1ccc2c(c1)nc1c([n+]2/N=C(\[O-])CCN(C)C)-c2cccc3cccc-1c23`, the T/C was 110 % of control under setting [12], 111 % of control under setting [9] and 116 % of control under setting [11].
In the case of `CC(C)CC(NC(=O)C(N)CCCN=C(N)N)C(=O)O` (stereo not drawn) (H-Arg-Leu-OH; configuration not given here), the T/C (dose: 50.0 mg/kg/injection, schedule: Q01DX005 (ip), vehicle: saline) was 100 % of control; the T/C (dose: 100.0 mg/kg/injection, schedule: Q01DX005 (ip), vehicle: saline) is 100 % of control; the T/C (dose: 200.0 mg/kg/injection, schedule: Q01DX005 (ip), vehicle: saline) is 106 % of control.
Consider `O=C1NC(=O)C(C(=O)Nc2ccc(Cl)cc2)c2ccccc21` (stereo not given), for which the T/C was 101 % of control under setting [5], 95 % of control under setting [6] and 99 % of control under setting [13].
For `Oc1c(C(Nc2cccc3cccnc23)c2ccccc2)ccc2cccnc12` (stereo not given), the T/C runs as follows: (dose: 25.0 mg/kg/injection, schedule: Q01DX009 (ip), vehicle: Klucel (hydroxypropylcellulose) (HPC)) 110 % of control; under setting [12], 106 % of control and 111 % of control; under setting [9], 106 % of control and 107 % of control.
As for `O=C1NC(=O)c2ccc3c4c(ccc1c24)C(=O)NC3=O`, the T/C (dose: 15.5 mg/kg/injection, schedule: Q01DX009 (ip), vehicle: saline with Tween-80) is 95 % of control; the T/C (dose: 31.0 mg/kg/injection, schedule: Q01DX009 (ip), vehicle: saline with Tween-80) was 95 % of control; the T/C (dose: 62.0 mg/kg/injection, schedule: Q01DX009 (ip), vehicle: saline with Tween-80) was 91 % of control.
Regarding `CC(C(=O)O)C(C)(C)c1ccccc1` (stereo not given), the T/C is, setting by setting: (dose: 100.0 mg/kg/injection, schedule: Q01DX001 (ip), vehicle: saline with Tween-80) 100 % of control; (dose: 200.0 mg/kg/injection, schedule: Q01DX001 (ip), vehicle: saline with Tween-80) 99 % of control; (dose: 400.0 mg/kg/injection, schedule: Q01DX001 (ip), vehicle: saline with Tween-80) 105 % of control.
`COS(C)=O` (stereo not given): the T/C by setting is: (dose: 50.0 mg/kg/injection, schedule: Q01DX009 (ip), vehicle: saline) 99 % of control; under setting [10], 99 % of control.
In the case of `Brc1ccc(COC2C[C@]34CC=CC[C@@]3(C2)O4)cc1` (stereo not given in full), the T/C is 105 % of control under setting [5], 103 % of control under setting [6] and 105 % of control under setting [13].
Take `CCC1(C#N)N=C(c2ccccc2)c2ccccc2N1C(=O)Oc1ccccc1` (stereo not given): the T/C by setting is: (dose: 50.0 mg/kg/injection, schedule: Q01DX005 (ip), vehicle: saline with Tween-80) 89 % of control; (dose: 100.0 mg/kg/injection, schedule: Q01DX005 (ip), vehicle: saline with Tween-80) 98 % of control; (dose: 200.0 mg/kg/injection, schedule: Q01DX005 (ip), vehicle: saline with Tween-80) 95 % of control.
For the compound `c1ccc2c(c1)ccc1c(NCCCCCCNc3c4ccccc4nc4c3ccc3ccccc34)c3ccccc3nc12`, the T/C is 93 % of control under setting [12], 96 % of control under setting [9] and 105 % of control under setting [11].
As to `c1ccc2c(c1)C1OC2c2ccccc21`, the T/C is, setting by setting: under setting [5], 99 % of control; under setting [6], 108 % of control; under setting [13], 100 % of control.
`CCC(c1ccc(OC)cc1)C(NC(=S)NCc1ccccc1)c1ccc(OC)cc1` (stereo not given): the T/C is 94 % of control under setting [7] and 91 % of control under setting [8].
Turning to `C/C(=C/c1ccccc1)C(=O)C1C(c2ccccc2)CC(O)C(C)C1c1ccccc1` (stereo not given), the T/C runs as follows: under setting [3], 93 % of control; under setting [4], 88 % of control.
